In ChEMBL document CHEMBL1201862, “PubChem BioAssay data set” (2004):
Calls of active or inactive are those of the source.

What was measured:
[1] = target: Luciferin 4-monooxygenase (Photinus pyralis, UniProt P08659); assay: inhibition of purified Photinus pyralis luciferase – biochemical, luminescence, dose response (AID 1891)
[2] = target: T1, Oxysterols receptor LXR-beta (Homo sapiens, UniProt P55055); assay type: functional, cell-based
T1 sequence (P55055 whole entry): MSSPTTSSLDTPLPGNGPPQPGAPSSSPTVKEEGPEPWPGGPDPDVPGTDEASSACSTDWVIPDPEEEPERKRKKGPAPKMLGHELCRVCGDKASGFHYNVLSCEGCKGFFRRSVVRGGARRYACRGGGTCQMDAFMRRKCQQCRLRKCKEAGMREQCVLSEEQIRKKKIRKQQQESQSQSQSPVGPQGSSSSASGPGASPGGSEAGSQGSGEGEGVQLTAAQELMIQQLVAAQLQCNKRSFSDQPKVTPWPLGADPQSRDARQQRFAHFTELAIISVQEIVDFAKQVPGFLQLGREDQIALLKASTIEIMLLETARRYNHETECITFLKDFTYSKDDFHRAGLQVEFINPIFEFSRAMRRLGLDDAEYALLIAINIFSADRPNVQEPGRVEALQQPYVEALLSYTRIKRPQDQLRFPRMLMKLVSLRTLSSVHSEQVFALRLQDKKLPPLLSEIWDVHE

[3] = Trypanosoma cruzi growth suppression in host cells – NIH3T3 host cells, beta-gal luminescence, confirmation (AID 2044); assay type: functional, cell-based;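 further: intracellular parasites grown in NIH/3T3 mouse fibroblasts as host cells; luminescent beta-galactosidase reporter signal from transgenic T. cruzi replicating inside host cells; inhibitors lower the luminescence signal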
[4] = Luminescence Cell-Based Dose Confirmation HTS to Identify Inhibitors of Platelet Dense Granule Release. [Related pubchem assays: 1663 (Primary HTS), 1678 (Summary of Project)]; assay type: functional
[5] = NIH3T3 cell viability loss – ATP luminescence, mouse fibroblasts, counter-screen, dose response (AID 2010); assay type: functional, cell-based;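 further: cells exposed to compound for about 90 hours before reading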
[6] = target: T2, Replicative DNA helicase DnaB (Mycobacterium tuberculosis, UniProt P9WMR3); assay: DnaB intein splicing inhibitors, dose response, biochemical, cell-free fluorescence (AID 449749); assay type: functional
T2 sequence (P9WMR3 whole entry): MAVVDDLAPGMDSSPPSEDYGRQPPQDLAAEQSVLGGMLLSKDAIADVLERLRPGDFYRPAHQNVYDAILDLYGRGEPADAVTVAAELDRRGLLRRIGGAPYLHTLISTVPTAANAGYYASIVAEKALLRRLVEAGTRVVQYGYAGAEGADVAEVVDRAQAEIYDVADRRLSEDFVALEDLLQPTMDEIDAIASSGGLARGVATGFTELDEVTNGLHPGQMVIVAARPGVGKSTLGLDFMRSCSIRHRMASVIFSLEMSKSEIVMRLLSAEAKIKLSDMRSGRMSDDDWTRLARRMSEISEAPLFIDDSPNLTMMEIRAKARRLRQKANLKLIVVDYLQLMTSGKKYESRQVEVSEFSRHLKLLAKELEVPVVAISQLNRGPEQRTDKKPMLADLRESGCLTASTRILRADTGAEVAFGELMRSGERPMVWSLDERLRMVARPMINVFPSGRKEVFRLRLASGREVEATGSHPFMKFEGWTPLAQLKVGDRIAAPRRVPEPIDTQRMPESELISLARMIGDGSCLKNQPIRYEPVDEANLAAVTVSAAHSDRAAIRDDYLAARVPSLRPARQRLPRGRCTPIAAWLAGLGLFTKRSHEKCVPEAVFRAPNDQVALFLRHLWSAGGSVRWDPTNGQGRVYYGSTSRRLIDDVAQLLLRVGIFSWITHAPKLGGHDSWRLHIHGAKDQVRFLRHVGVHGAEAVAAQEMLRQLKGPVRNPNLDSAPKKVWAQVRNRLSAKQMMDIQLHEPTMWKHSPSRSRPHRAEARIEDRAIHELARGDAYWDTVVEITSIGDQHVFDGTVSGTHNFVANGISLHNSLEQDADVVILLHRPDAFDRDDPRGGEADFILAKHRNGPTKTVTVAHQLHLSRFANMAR

[7] = viability loss in CEM21 cells – cell-based, CellTiter-Glo luminescence, cherry-picked, cytotoxicity control for viral fusion inhibitor project, dose response (AID 652042); assay type: functional;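 further: potency for signal decrease meaning cytotoxicity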
[8] = blockers of HIV-1 envelope-mediated cell-cell fusion – cherry-pick, dose response (AID 652057); assay type: functional, cell-based
[9] = blockers of HIV-1 ZM109 envelope-driven cell-cell fusion – HeLa effector, CEM target cells, luciferase, cherry-pick, dose response (AID 652058); assay type: functional, cell-based;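 further: luciferase signal from HIV-1 Env mediated cell-cell fusion of effector and target cells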
[10] = target: T3, Protein RecA (Mycobacterium tuberculosis, UniProt P9WHJ3); assay: Fluorescence Cell-Free Homogeneous Dose Retest to Identify Inhibitors of RecA-Intein Splicing Activity. [Related pubchem assays (depositor defined):AID2097, AID2223, AID489010, AID492950]; assay type: functional
T3 sequence (P9WHJ3 whole entry): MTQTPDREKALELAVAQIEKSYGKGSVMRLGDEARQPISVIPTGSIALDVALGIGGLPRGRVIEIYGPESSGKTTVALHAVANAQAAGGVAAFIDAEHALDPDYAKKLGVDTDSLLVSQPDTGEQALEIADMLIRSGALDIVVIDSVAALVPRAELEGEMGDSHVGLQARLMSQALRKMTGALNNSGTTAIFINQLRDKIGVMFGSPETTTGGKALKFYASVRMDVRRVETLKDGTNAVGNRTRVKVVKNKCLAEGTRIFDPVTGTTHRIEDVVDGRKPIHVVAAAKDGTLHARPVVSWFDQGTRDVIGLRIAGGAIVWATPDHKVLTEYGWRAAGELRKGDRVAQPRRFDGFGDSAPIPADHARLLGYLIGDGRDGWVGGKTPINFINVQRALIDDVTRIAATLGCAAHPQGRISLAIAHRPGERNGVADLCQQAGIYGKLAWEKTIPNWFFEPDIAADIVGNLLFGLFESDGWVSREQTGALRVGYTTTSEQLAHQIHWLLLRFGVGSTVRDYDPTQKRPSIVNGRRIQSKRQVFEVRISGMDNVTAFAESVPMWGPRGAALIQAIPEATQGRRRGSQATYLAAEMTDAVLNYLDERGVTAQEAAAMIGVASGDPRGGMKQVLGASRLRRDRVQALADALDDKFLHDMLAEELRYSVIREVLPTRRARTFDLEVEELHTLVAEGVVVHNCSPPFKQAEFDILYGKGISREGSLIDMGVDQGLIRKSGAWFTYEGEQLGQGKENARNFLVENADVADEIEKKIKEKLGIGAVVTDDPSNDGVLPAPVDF

[11] = viability of uninfected HEp-2 cells – cell-based, HTS, cytotoxicity control for RSV inhibitor project, dose response (AID 2410); assay type: functional; settings: human respiratory syncytial virus
[12] = HIV-1 AD8 envelope cell-cell fusion blockers – cherry-pick, dose response (AID 652062); assay type: functional, cell-based;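 further: luciferase signal from cell-cell fusion driven by HIV-1 clade B AD8 Env; potency is for inhibitors of fusion seen as a drop in luminescence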
[13] = off-target signal loss in HeLa-CEM21 co-culture – HeLa F-luc CTL cells, cherry-picked, counter-screen for HIV-1 Env fusion inhibitor project, dose response (AID 652040); assay type: functional, cell-based;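 further: potency for signal decrease marking cytotoxic or nonspecific inhibition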
[14] = target: T1, Oxysterols receptor LXR-beta; assay: LXR agonists, Gal4 luciferase reporter, dose response, counter-screen for ssDAF-12 agonist project, cell-based, luminescence, HEK293, S. stercoralis campaign (AID 720737); assay type: functional; settings: read-out: IC50 (the source's name)
[15] = cells
[16] = Luminescence-based cell-based high throughput dose response assay to identify activators of the DAF-12 from the parasite S. stercoralis (ssDAF-12).; assay type: functional
[17] = target: T1, Oxysterols receptor LXR-beta; assay type: functional, cell-based; remark: listed apart in the source
[18] = target: T4, Mannose-6-phosphate isomerase (Homo sapiens, UniProt P34949); assay: MPI inhibition at elevated mannose 6-phosphate – biochemical, fluorescence intensity, high mannose 6-phosphate, primary screen (AID 1220)
T4 sequence (P34949 whole entry): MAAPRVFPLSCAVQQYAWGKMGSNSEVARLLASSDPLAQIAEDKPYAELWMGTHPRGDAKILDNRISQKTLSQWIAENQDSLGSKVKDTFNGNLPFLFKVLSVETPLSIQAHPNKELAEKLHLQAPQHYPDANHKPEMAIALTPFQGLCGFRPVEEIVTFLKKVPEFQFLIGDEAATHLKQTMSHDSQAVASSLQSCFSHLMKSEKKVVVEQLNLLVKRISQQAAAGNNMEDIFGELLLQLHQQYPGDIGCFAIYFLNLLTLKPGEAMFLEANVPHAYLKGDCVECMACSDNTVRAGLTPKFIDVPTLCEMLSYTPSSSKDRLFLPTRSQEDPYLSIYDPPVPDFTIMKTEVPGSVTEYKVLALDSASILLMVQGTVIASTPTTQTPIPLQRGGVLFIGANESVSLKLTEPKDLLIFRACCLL

[19] = tested on: BJ; assay: cells; assay type: functional, cell-based; settings: Homo sapiens
[20] = tested on: BJ; assay: BJ-TERT-LT-ST fibroblast viability loss – cell-based, RAS-independent, luminescence, dose response (AID 1935); assay type: functional; settings: Homo sapiens;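 further: BJ fibroblasts immortalized with TERT plus LT and ST oncogenes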
[21] = tested on: BJ; assay: growth inhibition of engineered Ras-driven BJ cells – cell-based, alamar blue fluorescence, cherrypicked samples, dose response (AID 2631); assay type: functional; settings: Homo sapiens;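 further: confirmatory dose-response assay in RAS-dependent BJ fibroblasts engineered with TERT, LT and ST, with cytotoxicity read by fluorescence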
[22] = tested on: BJ; assay: BJ-TERT fibroblast viability loss – cell-based, RAS-independent, luminescence, dose response (AID 1933); assay type: functional; settings: Homo sapiens
[23] = DRD fibroblast viability loss – cell-based, non-viral oncogenic, luminescence, dose response (AID 1934); assay type: functional; settings: Homo sapiens
[24] = tested on: P388; assay: cells; assay type: functional; settings: Mus musculus
[25] = target: T5, Polyadenylate-binding protein 1 (Homo sapiens, UniProt P11940); assay: MLLE domain peptide-binding blockers, IC50 – biochemical, fluorescence polarization, FITC-PAM2 peptide, dose response (AID 602259); assay type: functional; settings: read-out: IC50_Mean
[26] = tested on: P388/ADR; assay: cells; assay type: functional; settings: Mus musculus
[27] = target: T6, Caspase-6 (Homo sapiens, UniProt P55212); assay: inhibition of CASP6 peptide cleavage – biochemical, VEID-R110 fluorescence, cherry-pick, dose response (AID 720632)
T6 sequence (P55212 whole entry): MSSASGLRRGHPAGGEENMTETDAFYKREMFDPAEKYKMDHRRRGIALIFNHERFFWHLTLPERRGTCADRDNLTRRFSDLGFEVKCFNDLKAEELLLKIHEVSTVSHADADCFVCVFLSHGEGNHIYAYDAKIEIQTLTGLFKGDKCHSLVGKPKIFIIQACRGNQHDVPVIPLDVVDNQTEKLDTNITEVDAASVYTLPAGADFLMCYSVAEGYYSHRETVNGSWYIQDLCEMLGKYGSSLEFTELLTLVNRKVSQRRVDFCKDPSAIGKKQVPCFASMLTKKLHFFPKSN

[28] = tested on: SN12K1; assay: cells; assay type: functional; settings: Homo sapiens
[29] = target: T5, Polyadenylate-binding protein 1; assay: MLLE binding blockers, Cy5 peptide tracer – biochemical, fluorescence polarization, Cy5-PAM2 peptide, secondary, miRNA deadenylation inhibitor project, dose response (AID 602260); assay type: functional; settings: read-out: IC50_Mean

T5 sequence (P11940 whole entry, the tested form may be a part): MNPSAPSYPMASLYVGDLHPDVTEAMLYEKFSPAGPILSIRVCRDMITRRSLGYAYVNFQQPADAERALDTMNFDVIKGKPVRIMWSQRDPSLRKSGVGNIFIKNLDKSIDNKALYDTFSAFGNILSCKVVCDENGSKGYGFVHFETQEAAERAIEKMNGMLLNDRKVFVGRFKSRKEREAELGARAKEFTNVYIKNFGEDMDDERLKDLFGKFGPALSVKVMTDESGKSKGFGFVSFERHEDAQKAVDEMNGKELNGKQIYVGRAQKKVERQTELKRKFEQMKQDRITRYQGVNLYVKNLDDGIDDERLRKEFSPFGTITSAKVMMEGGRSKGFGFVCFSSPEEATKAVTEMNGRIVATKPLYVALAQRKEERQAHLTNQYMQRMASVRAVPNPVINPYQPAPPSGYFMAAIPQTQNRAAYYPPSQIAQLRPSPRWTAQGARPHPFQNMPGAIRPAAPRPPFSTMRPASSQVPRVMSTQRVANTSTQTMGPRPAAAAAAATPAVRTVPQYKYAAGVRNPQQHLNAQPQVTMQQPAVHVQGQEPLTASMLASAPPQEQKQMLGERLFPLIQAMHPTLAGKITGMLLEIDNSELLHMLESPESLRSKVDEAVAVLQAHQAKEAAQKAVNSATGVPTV
Luciferin 4-monooxygenase, sequence (P08659 whole entry): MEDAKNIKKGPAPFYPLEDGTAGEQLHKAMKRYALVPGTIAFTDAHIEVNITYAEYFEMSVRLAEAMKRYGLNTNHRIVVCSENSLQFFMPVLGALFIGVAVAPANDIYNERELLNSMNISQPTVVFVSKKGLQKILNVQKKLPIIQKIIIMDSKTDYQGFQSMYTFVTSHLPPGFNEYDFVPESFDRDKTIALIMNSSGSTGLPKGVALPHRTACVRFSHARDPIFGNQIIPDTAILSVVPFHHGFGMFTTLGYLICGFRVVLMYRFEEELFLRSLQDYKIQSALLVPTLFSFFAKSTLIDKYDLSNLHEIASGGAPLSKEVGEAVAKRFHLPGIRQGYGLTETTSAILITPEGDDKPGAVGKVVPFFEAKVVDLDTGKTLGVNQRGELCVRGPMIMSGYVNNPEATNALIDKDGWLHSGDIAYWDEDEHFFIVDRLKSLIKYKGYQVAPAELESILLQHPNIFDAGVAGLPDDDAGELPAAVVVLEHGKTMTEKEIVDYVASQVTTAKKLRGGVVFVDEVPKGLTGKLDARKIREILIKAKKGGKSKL

CN1CCN(/C=N/c2sc3c(c2C#N)CCCCC3)CC1
EC50 [1]: > 112 µM (not active) | EC50 [2]: > 67.5 µM (inactive) | EC50 [3]: 1.01 µM (active) | EC50 [4]: > 112 µM (not active) | EC50 [5]: > 60 µM (not active)

Oc1nnc(Sc2ncnc3sccc23)n1CCc1ccccc1
AC50 [6]: > 380 µM (inactive) | AC50 [7]: 27 µM (active) | AC50 [8]: 7.58 µM (active) | AC50 [9]: 16.6 µM (active) | EC50 [10]: 18 µM (active) | CC50 [11]: 14.9 µM (active) | AC50 [12]: 18.1 µM (active) | AC50 [13]: 17.3 µM (active)

Cc1cccc2c(N=Nc3ccccc3)c(O)[nH]c12
EC50 [14]: > 67.5 µM (inactive) | EC50 [15]: > 67.5 µM (inactive) | IC50 [16]: > 67.5 µM (inactive) | EC50 [17]: > 67.5 µM (inactive)

CCC1(CC)Cc2ccccc2C2=C(C(=O)N3CCCCC3)C(=O)C(=O)N21
IC50 [18]: > 50 µM (not active)

COc1ccc2nc(O)c(CN(Cc3cccs3)S(=O)(=O)c3cccc4nsnc34)cc2c1
EC50 [19]: 25.6 µM (inconclusive) | AC50 [7]: 38.4 µM (active) | EC50 [20]: > 150 µM (not active) | EC50 [21]: 1.62 µM (active) | EC50 [22]: 21.1 µM (active) | AC50 [8]: 4.12 µM (active) | AC50 [12]: 3.31 µM (active) | AC50 [13]: 16.9 µM (active) | EC50 [23]: 14.5 µM (active)

Cc1ccc(C(=O)C2CC2)c(C)c1
EC50 [14]: > 67.4 µM (inactive) | IC50 [16]: > 67.4 µM (inactive)

CN1N=C(N)c2cn(C3OC(COP(=O)(O)O)C(O)C3O)c3ncnc1c23 (stereo not given)
GI50 [24]: 0.5 µM (active) | IC50 [25]: > 66 µM (inactive) | GI50 [26]: 0.5 µM (active) | AC50 [27]: 29.6 µM (active) | GI50 [28]: 32.8 µM (inactive) | IC50 [29]: > 66 µM (inactive)
